Assay results taken from ChEMBL document CHEMBL3232787, “Lipopeptides from the tropical marine cyanobacterium Symploca sp” (J Nat Prod, 2014).
pIC50: −log10 of the molar value.

Experiments:
KB = test: Cytotoxicity against human KB cells; assay type: functional, cell-based
HCT-116 = test: Cytotoxicity against human HCT116 cells after 120 hrs by hemocytometer; assay type: functional, cell-based; conditions: HCT-116, 120 h

Compound `CC[C@H](C)[C@H](O)C(=O)N[C@@H](CC(C)C)C(=O)N(C)[C@@H](CCC(N)=O)C(=O)N[C@H](C(=O)NCC(=O)N(C)[C@H](Cc1ccccc1)C(=O)N1CCC[C@H]1C(=O)OC)[C@@H](C)CC` [TASIAMIDE] has a pIC50 (KB) of 6.32.
`CC[C@H](C)[C@H](NC(=O)[C@H](CCC(N)=O)N(C)C(=O)[C@H](OC(=O)[C@@H](O)C(C)C)C(C)C)C(=O)N[C@@H](C)C(=O)N[C@H](Cc1ccccc1)C(=O)N1CCC[C@H]1C(=O)OC` showed a pIC50 (HCT-116) of 4.60.
For `CC[C@H](C)[C@@H](NC(=O)[C@H](CCC(N)=O)N(C)C(=O)[C@H](OC(=O)[C@@H](O)C(C)C)C(C)C)C(=O)N[C@@H](C)C(=O)N(C)[C@H](Cc1ccccc1)C(=O)N1CCC[C@H]1C(=O)OC`, the pIC50 (HCT-116) was < 4.60.
